Data taken from ChEMBL document CHEMBL4507270 (2021).
Active and inactive are the calls of the source. The rule behind the calls is not given here.

Legend:
[1] = molecular target: Angiopoietin-1 receptor (Homo sapiens, UniProt Q02763); experiment: NanoBRET assay (SGC Frankfurt) with TEK
[2] = molecular target: Aurora kinase C (Homo sapiens) (UniProt Q9UQB9)
[3] = molecular target: Calcium/calmodulin-dependent protein kinase kinase 1 (Homo sapiens) (UniProt Q8N5S9)
[4] = molecular target: Cyclin-dependent kinase 4 (Homo sapiens) (UniProt P11802)
[5] = molecular target: Dual specificity protein kinase CLK1 (Homo sapiens) (UniProt P49759)
[6] = molecular target: Macrophage colony-stimulating factor 1 receptor (Homo sapiens) (UniProt P07333)
[7] = molecular target: Death-associated protein kinase 3 (Homo sapiens) (UniProt O43293)
[8] = molecular target: Dual specificity tyrosine-phosphorylation-regulated kinase 2 (Homo sapiens) (UniProt Q92630)
[9] = tested on: Epidermal growth factor receptor (Homo sapiens), P00533 [L861Q]
[10] = tested on: Epidermal growth factor receptor (Homo sapiens), P00533 [UNDEFINED MUTATION]
[11] = molecular target: Ephrin type-A receptor 1 (Homo sapiens) (UniProt P21709)
[12] = molecular target: Mitogen-activated protein kinase 15 (Homo sapiens) (UniProt Q8TD08)
[13] = molecular target: Receptor-type tyrosine-protein kinase FLT3 (Homo sapiens) (UniProt P36888)
[14] = tested on: Receptor-type tyrosine-protein kinase FLT3 (Homo sapiens), P36888 [D835H]
[15] = molecular target: Serine/threonine-protein kinase haspin (Homo sapiens) (UniProt Q8TF76)
[16] = molecular target: Mitogen-activated protein kinase kinase kinase kinase 1 (Homo sapiens) (UniProt Q92918)
[17] = molecular target: Tyrosine-protein kinase ITK/TSK (Homo sapiens) (UniProt Q08881)
[18] = tested on: Mast/stem cell growth factor receptor Kit (Homo sapiens), P10721 [L576P]
[19] = molecular target: Serine/threonine-protein kinase MAK (Homo sapiens) (UniProt P20794)
[20] = molecular target: Mitogen-activated protein kinase kinase kinase 1 (Homo sapiens) (UniProt Q13233)
[21] = molecular target: Mitogen-activated protein kinase kinase kinase kinase 5 (Homo sapiens) (UniProt Q9Y4K4)
Mitogen-activated protein kinase kinase kinase kinase 5 (Homo sapiens), sequence (Q9Y4K4 whole entry, looked up): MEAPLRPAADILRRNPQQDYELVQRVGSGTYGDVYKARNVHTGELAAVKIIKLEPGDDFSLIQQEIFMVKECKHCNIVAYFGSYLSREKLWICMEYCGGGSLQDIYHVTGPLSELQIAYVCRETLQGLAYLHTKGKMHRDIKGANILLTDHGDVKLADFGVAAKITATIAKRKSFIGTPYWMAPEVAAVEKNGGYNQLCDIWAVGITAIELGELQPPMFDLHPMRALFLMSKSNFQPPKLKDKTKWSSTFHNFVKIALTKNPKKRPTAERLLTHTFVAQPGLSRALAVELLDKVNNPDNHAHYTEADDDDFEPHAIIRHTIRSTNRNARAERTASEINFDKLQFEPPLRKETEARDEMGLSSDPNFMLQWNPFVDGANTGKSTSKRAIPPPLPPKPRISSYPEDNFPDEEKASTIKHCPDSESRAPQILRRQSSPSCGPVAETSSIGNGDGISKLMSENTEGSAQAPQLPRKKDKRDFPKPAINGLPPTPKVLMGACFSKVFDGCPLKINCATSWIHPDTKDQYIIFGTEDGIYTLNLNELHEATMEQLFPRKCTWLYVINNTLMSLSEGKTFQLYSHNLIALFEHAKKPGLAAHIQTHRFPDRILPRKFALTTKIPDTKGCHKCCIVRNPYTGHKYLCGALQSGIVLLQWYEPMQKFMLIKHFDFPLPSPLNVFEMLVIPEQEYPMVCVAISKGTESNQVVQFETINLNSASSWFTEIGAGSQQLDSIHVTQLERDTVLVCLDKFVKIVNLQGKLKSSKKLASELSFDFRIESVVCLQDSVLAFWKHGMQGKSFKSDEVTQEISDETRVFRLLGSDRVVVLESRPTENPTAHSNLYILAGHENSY

[22] = molecular target: MAP kinase-interacting serine/threonine-protein kinase 2 (Homo sapiens) (UniProt Q9HBH9)
[23] = molecular target: Serine/threonine-protein kinase 26 (Homo sapiens) (UniProt Q9P289)
[24] = molecular target: Serine/threonine-protein kinase mTOR (Homo sapiens) (UniProt P42345)
[25] = molecular target: Mitogen-activated protein kinase 14 (Homo sapiens) (UniProt Q16539)
[26] = molecular target: Platelet-derived growth factor receptor alpha (Homo sapiens) (UniProt P16234)
Platelet-derived growth factor receptor alpha (Homo sapiens), sequence (P16234 whole entry, canonical isoform): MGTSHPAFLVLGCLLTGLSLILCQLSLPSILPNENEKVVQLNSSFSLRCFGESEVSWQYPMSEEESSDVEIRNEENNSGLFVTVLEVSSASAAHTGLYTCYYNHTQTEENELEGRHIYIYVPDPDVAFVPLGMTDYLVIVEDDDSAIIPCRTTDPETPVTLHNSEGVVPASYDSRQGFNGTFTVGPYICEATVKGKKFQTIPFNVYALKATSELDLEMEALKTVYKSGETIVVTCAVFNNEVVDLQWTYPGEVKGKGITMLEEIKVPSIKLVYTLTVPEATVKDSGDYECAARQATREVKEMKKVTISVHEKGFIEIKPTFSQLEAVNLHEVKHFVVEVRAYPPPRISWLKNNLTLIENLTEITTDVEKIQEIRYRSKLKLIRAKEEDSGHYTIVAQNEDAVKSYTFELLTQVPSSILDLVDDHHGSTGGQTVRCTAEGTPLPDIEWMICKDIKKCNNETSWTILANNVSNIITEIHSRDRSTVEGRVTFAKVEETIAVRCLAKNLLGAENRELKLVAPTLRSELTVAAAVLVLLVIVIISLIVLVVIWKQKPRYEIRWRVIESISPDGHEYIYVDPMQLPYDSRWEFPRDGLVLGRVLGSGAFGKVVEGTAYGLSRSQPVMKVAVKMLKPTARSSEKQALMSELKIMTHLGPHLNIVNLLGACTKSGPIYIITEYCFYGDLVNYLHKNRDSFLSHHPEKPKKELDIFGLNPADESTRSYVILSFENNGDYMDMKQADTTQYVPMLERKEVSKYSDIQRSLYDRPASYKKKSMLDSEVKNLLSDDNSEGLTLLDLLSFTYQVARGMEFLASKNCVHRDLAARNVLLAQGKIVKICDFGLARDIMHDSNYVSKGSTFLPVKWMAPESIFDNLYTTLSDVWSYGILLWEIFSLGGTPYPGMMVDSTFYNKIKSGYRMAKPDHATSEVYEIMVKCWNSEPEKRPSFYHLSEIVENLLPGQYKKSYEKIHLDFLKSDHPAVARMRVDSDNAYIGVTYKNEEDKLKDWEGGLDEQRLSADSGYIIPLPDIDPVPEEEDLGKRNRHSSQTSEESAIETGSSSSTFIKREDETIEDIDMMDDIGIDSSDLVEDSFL

[27] = molecular target: Phosphorylase b kinase gamma catalytic chain, skeletal muscle/heart isoform (Homo sapiens) (UniProt Q16816)
[28] = molecular target: Phosphatidylinositol 3-kinase C2 domain-containing subunit gamma (Homo sapiens) (UniProt O75747)
[29] = molecular target: Phosphatidylinositol 4,5-bisphosphate 3-kinase catalytic subunit delta isoform (Homo sapiens) (UniProt O00329)
Phosphatidylinositol 4,5-bisphosphate 3-kinase catalytic subunit delta isoform (Homo sapiens), sequence (O00329 whole entry, canonical isoform): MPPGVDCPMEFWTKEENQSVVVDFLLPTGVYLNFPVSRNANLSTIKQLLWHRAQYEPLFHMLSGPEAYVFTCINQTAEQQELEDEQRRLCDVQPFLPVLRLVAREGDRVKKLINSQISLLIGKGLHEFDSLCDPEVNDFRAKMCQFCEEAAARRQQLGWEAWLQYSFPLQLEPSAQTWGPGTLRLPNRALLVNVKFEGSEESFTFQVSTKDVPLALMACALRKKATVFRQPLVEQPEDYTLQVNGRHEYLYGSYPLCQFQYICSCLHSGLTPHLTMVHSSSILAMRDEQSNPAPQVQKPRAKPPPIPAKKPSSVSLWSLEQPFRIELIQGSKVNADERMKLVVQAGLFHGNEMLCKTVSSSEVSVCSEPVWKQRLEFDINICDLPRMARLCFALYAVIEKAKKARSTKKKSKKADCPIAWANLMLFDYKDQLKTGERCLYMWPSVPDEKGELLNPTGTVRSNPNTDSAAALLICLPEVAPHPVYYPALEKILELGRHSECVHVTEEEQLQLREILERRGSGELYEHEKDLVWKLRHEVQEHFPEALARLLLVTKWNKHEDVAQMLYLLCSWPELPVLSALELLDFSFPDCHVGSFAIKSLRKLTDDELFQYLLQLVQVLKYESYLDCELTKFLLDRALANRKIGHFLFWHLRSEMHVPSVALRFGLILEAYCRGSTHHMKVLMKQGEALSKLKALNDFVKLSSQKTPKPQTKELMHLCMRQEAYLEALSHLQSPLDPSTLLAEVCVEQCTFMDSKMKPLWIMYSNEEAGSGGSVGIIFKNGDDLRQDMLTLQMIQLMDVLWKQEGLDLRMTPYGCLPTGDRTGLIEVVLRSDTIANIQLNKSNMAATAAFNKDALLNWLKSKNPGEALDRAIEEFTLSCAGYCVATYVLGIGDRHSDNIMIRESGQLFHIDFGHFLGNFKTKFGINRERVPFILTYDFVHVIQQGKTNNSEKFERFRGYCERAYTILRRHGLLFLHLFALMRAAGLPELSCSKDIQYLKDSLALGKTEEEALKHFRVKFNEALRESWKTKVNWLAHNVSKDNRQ

[30] = molecular target: Serine/threonine-protein kinase pim-3 (Homo sapiens) (UniProt Q86V86)
[31] = molecular target: cAMP-dependent protein kinase catalytic subunit alpha (Homo sapiens) (UniProt P17612)
[32] = molecular target: Serine/threonine-protein kinase D2 (Homo sapiens) (UniProt Q9BZL6)
[33] = molecular target: Serine/threonine-protein kinase D3 (Homo sapiens) (UniProt O94806)
[34] = tested on: Proto-oncogene tyrosine-protein kinase receptor Ret (Homo sapiens), P07949 [M918T]
[35] = molecular target: Serine/threonine-protein kinase Sgk1 (Homo sapiens) (UniProt O00141)
[36] = molecular target: NT-3 growth factor receptor (Homo sapiens) (UniProt Q16288)
[37] = molecular target: Testis-specific serine/threonine-protein kinase 3 (Homo sapiens) (UniProt Q96PN8)
[38] = molecular target: 5-hydroxytryptamine receptor 1E (Homo sapiens) (UniProt P28566); conditions: Compound concentration 10.0 uM
[39] = molecular target: 5-hydroxytryptamine receptor 2A (Homo sapiens) (UniProt P28223); conditions: Compound concentration 10.0 uM
[40] = molecular target: Sodium-dependent noradrenaline transporter (Homo sapiens, UniProt P23975); conditions: Compound concentration 10.0 uM
Sodium-dependent noradrenaline transporter, sequence (P23975 whole entry): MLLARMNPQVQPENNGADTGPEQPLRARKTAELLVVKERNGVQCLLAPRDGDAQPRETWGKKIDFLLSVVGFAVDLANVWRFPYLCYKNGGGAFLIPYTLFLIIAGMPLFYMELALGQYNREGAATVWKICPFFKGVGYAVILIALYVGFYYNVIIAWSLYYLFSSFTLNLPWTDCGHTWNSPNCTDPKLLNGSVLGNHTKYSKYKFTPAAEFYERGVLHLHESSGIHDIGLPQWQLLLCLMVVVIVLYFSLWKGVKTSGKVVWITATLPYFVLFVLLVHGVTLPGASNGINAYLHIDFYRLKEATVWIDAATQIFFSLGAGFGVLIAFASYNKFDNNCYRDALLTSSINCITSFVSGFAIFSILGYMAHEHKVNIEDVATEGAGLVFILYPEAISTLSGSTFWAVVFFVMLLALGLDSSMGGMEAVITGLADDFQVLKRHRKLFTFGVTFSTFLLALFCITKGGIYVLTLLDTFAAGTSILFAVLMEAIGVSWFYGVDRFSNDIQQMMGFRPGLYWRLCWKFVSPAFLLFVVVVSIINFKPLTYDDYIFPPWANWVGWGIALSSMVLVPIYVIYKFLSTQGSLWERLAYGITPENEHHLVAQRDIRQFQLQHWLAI

[41] = molecular target: Delta-type opioid receptor (Homo sapiens, UniProt P41143); conditions: Compound concentration 10.0 uM
Delta-type opioid receptor, sequence (P41143 whole entry): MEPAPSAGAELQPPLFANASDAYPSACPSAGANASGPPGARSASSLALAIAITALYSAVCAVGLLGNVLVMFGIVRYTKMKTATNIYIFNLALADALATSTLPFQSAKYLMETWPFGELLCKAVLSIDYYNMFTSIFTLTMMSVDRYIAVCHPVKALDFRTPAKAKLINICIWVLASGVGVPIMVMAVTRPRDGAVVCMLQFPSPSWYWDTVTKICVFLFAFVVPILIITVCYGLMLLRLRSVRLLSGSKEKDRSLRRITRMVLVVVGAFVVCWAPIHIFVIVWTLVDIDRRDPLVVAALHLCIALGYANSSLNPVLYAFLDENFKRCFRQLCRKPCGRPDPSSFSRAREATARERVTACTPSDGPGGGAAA

[42] = molecular target: Alpha-1B adrenergic receptor (Homo sapiens) (UniProt P35368); conditions: Compound concentration 10.0 uM
[43] = molecular target: Alpha-2C adrenergic receptor (Homo sapiens) (UniProt P18825); conditions: Compound concentration 10.0 uM
[44] = molecular target: Muscarinic acetylcholine receptor M5 (Homo sapiens) (UniProt P08912); conditions: Compound concentration 10.0 uM
[45] = molecular target: Sigma intracellular receptor 2 (Homo sapiens, UniProt Q5BJF2); conditions: Compound concentration 10.0 uM
[46] = Compound concentration 1000.0 nM
[47] = Compound concentration 100.0 nM

Angiopoietin-1 receptor, sequence (Q02763 whole entry): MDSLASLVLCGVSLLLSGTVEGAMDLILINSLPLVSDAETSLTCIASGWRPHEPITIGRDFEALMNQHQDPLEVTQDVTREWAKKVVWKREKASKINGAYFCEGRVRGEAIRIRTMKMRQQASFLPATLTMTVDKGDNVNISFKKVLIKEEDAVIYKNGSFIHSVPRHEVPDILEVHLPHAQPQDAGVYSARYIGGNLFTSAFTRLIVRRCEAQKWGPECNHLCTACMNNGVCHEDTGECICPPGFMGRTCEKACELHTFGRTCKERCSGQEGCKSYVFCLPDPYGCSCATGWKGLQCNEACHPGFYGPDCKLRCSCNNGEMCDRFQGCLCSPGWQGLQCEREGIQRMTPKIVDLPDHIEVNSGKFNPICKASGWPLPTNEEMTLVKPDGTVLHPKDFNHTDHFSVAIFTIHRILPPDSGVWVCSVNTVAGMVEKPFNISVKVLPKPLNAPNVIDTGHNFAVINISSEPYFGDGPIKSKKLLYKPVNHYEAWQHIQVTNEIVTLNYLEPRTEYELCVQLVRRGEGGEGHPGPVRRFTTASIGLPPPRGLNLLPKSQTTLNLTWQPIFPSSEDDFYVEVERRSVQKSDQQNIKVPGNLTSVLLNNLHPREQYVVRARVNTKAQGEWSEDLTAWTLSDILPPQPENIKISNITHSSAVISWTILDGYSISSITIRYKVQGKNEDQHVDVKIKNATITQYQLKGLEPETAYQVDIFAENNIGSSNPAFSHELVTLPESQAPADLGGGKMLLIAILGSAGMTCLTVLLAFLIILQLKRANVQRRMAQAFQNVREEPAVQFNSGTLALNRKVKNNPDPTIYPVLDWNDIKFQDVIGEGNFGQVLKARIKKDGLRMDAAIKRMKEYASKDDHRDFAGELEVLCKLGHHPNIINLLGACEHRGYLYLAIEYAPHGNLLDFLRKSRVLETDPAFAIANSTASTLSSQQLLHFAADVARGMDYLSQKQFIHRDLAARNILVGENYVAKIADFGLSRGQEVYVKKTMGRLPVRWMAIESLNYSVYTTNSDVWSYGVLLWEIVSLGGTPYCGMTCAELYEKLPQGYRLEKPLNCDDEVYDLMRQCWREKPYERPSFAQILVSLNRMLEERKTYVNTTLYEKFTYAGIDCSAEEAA

In the case of `Cc1cc(NC(=O)c2cccc(S(F)(F)(F)(F)F)c2)cc(-n2ccn3nc(-c4cccnc4)cc23)c1` [BAY-309], the EC50 [1] is reported as 3300 nM (not active), the IC50 [1] is reported as 1100 nM (not active) and the residual activity [2, 46] is reported as 86.7%. The residual activity [3, 46] was 100%, the residual activity [4, 46] was 82.9% and the residual activity [5, 46] was 100%. It also gave a residual activity [6, 46] of 89%, a residual activity [7, 46] of 100% and a residual activity [8, 46] of 100%. For the same molecule, the residual activity [9, 46] was 98.2%, the residual activity [10, 46] was 100% and the residual activity [11, 46] was 100%. It also gave a residual activity [12, 46] of 100%, a residual activity [13, 46] of 100% and a residual activity [14, 46] of 99.9%. It also gave a residual activity [15, 46] of 70.9%, a residual activity [16, 46] of 82.1% and a residual activity [17, 46] of 100%. For the same molecule, the residual activity [18, 46] was 100%, the residual activity [19, 46] was 100% and the residual activity [20, 46] was 90%. For the same molecule, the residual activity [21, 46] was 100%, the residual activity [22, 46] was 85.2% and the residual activity [23, 46] was 100%. For the same molecule, the residual activity [24, 46] was 99.2%, the residual activity [25, 46] was 100% and the residual activity [26, 46] was 100%. For the same molecule, the residual activity [27, 46] was 100%, the residual activity [28, 46] was 100% and the residual activity [29, 46] was 100%. The residual activity [30, 46] was 100%, the residual activity [31, 46] was 100% and the residual activity [32, 46] was 100%. It also gave a residual activity [33, 46] of 100%, a residual activity [34, 46] of 100% and a residual activity [35, 46] of 81.3%. The residual activity [36, 46] was 27.2%, the residual activity [37, 46] was 100% and the inhibition [38] was 19.9%. It also gave an inhibition [39] of 21.9%, an inhibition [40] of 62.9% and an inhibition [41] of 58.5%. The inhibition [42] was -8.99%, the inhibition [43] was -5.04% and the inhibition [44] was 8.74%. The inhibition [45] was 68.7%.

For `Cc1cc(C)c(-n2ccn3nc(-c4cccnc4)cc23)cc1NC(=O)c1cc(C#N)cc(S(F)(F)(F)(F)F)c1` [BAY-826], the EC50 [1] was 1.7 nM (active), the IC50 [1] was 0.7 nM (active) and the residual activity [2, 47] was 100%. It also gave a residual activity [3, 47] of 93.6%, a residual activity [4, 47] of 89.4% and a residual activity [5, 47] of 96.2%. It also gave a residual activity [6, 47] of 92.9%, a residual activity [7, 47] of 78.1% and a residual activity [8, 47] of 82.5%. It also gave a residual activity [9, 47] of 91.1%, a residual activity [10, 47] of 91.6% and a residual activity [11, 47] of 100%. The residual activity [12, 47] was 94.1%, the residual activity [13, 47] was 100% and the residual activity [14, 47] was 87.8%. It also gave a residual activity [15, 47] of 64%, a residual activity [16, 47] of 100% and a residual activity [17, 47] of 84.9%. For the same molecule, the residual activity [18, 47] was 40.7%, the residual activity [19, 47] was 77.2% and the residual activity [20, 47] was 78.3%. The residual activity [21, 47] was 83.4%, the residual activity [22, 47] was 95% and the residual activity [23, 47] was 81.8%. For the same molecule, the residual activity [24, 47] was 70.1%, the residual activity [25, 47] was 0% and the residual activity [26, 47] was 67.4%. The residual activity [27, 47] was 80.1%, the residual activity [28, 47] was 60.7% and the residual activity [29, 47] was 76.9%. For the same molecule, the residual activity [30, 47] was 83.1%, the residual activity [31, 47] was 95.6% and the residual activity [32, 47] was 100%. It also gave a residual activity [33, 47] of 97%, a residual activity [34, 47] of 77.1% and a residual activity [35, 47] of 100%. It also gave a residual activity [36, 47] of 60.4%, a residual activity [37, 47] of 76.9% and an inhibition [38] of 3.57%. It also gave an inhibition [39] of -4.7%, an inhibition [40] of 1.95% and an inhibition [41] of 18.7%. The inhibition [42] was -0.87%, the inhibition [43] was -7.91% and the inhibition [44] was 16.1%. For the same molecule, the inhibition [45] was 64.4%.
